Several values for one entry are separate records, joined by “and”; a condition that tells them apart may be missing. Equal values may be shown once.
Legend:
MCF7 cells [1] = assay: RT2 Profiler PCR array of 84 human cell cycle genes; format: cell-based
MCF7 breast cancer cells = assay: SRB assay, anti-proliferative potential; format: cell-based; conditions: Homo sapiens, MCF7, 72 h, read-out: SRB assay IC50
[2] = tested on: MNU-induced mammary tumors; assay: MNU-induced mammary tumor growth in Sprague-Dawley rats; format: in vivo, rat; conditions: 10 mg/kg BW/day, six weeks, 10 rats/group, p = 0.1 Mann-Whitney
human RXRα = molecular target: T1, human RXRα (Homo sapiens, UniProt P19793); conditions: COS-1 cells, 24 h
T1 sequence (P19793 1-462): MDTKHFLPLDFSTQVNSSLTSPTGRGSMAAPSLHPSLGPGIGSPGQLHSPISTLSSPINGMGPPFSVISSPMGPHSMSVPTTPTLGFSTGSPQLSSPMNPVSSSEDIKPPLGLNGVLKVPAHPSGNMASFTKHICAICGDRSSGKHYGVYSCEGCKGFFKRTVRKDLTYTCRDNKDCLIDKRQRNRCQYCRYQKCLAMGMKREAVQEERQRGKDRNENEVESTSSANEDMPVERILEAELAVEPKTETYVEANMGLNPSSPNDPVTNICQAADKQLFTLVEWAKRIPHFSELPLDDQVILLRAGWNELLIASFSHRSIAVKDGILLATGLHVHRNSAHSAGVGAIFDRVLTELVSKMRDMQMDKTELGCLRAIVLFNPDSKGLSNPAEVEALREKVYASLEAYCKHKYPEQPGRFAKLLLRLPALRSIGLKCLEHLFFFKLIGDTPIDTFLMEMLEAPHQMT

MCF7 cells [3] = assay: Western blot of p53 and p21 protein; format: cell-based, human; conditions: 1 μM, 8, 24 and 48 h
[4] = Caco-2 cell monolayer permeability; format: in vitro ADME; conditions: human, Caco-2, pH 7.4
Caco-2 cell monolayer = Caco-2 cell monolayer permeability; format: in vitro ADME; conditions: Caco-2
MCF7 cells [5] = assay: Cell cycle distribution by NIM-DAPI flow cytometry; format: cell-based, human; conditions: 2.5 μM
[6] = Absorption and distribution in rats after gavage; format: in vivo, rat; conditions: 40 mg/kg by gavage, 3 h after first treatment, individual rats; listed as AM6-36
HL-60 cells = assay: Expression of cell surface marker CD38 by flow cytometry; format: cell-based, human

Q: With `C=C(c1ccc(C(=O)O)cc1)c1cc2c(cc1C)C(C)(C)CCC2(C)C` [Bexarotene, reference compound] as the compound, how does the “Number of genes out of 84 with significantly altered expression” value (MCF7 cells [1]; 24 h, AM6-36 1 μM, bexarotene 100 μM, P <0.05) read?
A: 9

Q: For `CC[C@@]1(O)C(=O)OCc2c1cc1n(c2=O)Cc2cc3ccccc3nc2-1` [Camptothecin], which IC50 (MCF7 breast cancer cells) is on record?
A: 1.41 nM

Q: For `Cl.Cl.NCCCn1c2c(c3ccc(N)cc3c1=O)C(=O)c1ccccc1-2` [Compound 3, 3-amino-6-(3-aminopropyl)-5,6-dihydro-5,11-dioxo-11H-indeno[1,2-c]isoquinoline dihydrochloride], which “Up-regulation of CDKN1A expression” value (MCF7 cells [1]; DNA microarray analysis) is on record?
A: 35 fold

Q: And the “Growth of MNU-induced mammary tumors” value [2]?
A: clearly attenuated tumor growth

Q: And the “Relative luciferase activity induction” value (human RXRα; 20 μM)?
A: 133.2 fold

Q: What about the “RXRE assay, fold increase of relative luciferase activity over vehicle” value (human RXRα; 40 μM) of the same compound?
A: 5.49±0.34 fold

Q: And the p21 protein expression (MCF7 cells [3])?
A: moderate increase at 8 h, and incremental expression was observed at 24 and 48 h

Q: What about the p53 protein level (MCF7 cells [3]) of the same compound?
A: increase of p53 at 8 h, followed by decreases at 24 and 48 h

Q: What about the Papp A→B at 5 µM [4] of the same compound?
A: 2.75 ± 0.78 ×10⁻⁶ cm/s

Q: And the Papp A→B at 10 µM [4]?
A: 5.52 ± 0.29 ×10⁻⁶ cm/s

Q: What about the Papp A→B at 25 µM [4] of the same compound?
A: 4.45 ± 0.71 ×10⁻⁶ cm/s

Q: What about the Papp B→A at 5 µM [4] of the same compound?
A: 3.95 ± 0.11 ×10⁻⁶ cm/s

Q: And the Papp B→A at 10 µM [4]?
A: 3.25 ± 0.71 ×10⁻⁶ cm/s

Q: And the Papp B→A at 25 µM [4]?
A: 8.26 ± 0.93 ×10⁻⁶ cm/s

Q: And the “Papp AP to BL, times slower than propranolol” value (Caco-2 cell monolayer)?
A: 10 fold

Q: And the Cell cycle distribution (MCF7 cells [5])?
A: S phase arrest

Q: And the “Serum 1-day” value [6]?
A: 0.84 ± 0.01 μg/ml and 2.14 μM and 0.82 ± 0.004 μg/ml and 2.09 μM

Q: Which “FL-1 positive cells (CD38)” value (HL-60 cells; HL-60 cells, 2 nM) does the source give for `CC1=C(/C=C/C(C)=C\C=C\C(C)=C\C(=O)O)C(C)(C)CCC1` [Compound 9-cis-RA, 9-cis-Retinoic acid] here?
A: 86.7%

Q: And the “CD38-expressing cell population (FL-1 positive)” value (HL-60 cells; HL-60 cells, 2000, 200, 20 nM)?
A: about 95%

From publication PMC5554444 (Cancer prevention research (Philadelphia, Pa.), 2011)
